This is an account of results in patent publication US20210401867A1, “PHOTOSENSITIZERS AND METHOD OF TREATING CANCER USING THE SAME” (Cheng-Wen Wu, priority 2018, published 2021).

For series [1], the system named is FaDu cells. The experiment in a line: colony forming assay of FaDu cells. Format: cell-based, human. Here is the method:
In the following examples, FaDu cells are used in cell viability tests and colony forming assays. FaDu cells (ATCC HTB-43) is a human head-and-neck cell line with squamous phenotype. FaDu cells used in the following examples are cultured in DMEM medium supplemented with 10% fetal bovine serum (FBS) and 1% penicillin/streptomycin, in a humidified incubator maintained at 37° C. and 5% CO2.
Referring to FIGS. 9A-C, an in vitro cell viability chart of FaDu cells when treated with BrdU alone, NR alone, and BrdU and NR, is provided in accordance with an exemplary embodiment of the present disclosure. NR treatments in FIGS. 9A, 9B, and 9C are similar with the experiment procedures for FIG. 6. In samples where FaDu cells are treated with BrdU and NR, FaDu cells are incubated with BrdU for 24 hours before irradiated with NR. Referring to FIG. 9B, a colony forming assay result of FaDu cells after the treatments described in […], is provided in accordance with an exemplary embodiment of the present disclosure. The colony forming assay in FIG. 9B are proceeded as following: FaDu cells treated by different regimens are grouped and seeded in 6-well-plates with 1000 cells in each of the well and cultured for 14 days; the culture medium was replaced every 3 to 4 days; in the end of the experiment, the cells are washed twice with PBS and fixed with 4% paraformaldehyde for 15 minutes and stained with 0.1% crystal violet. Referring to FIG. 9C, a quantitative result of the colony forming assay in FIG. 9B is provided in accordance with an exemplary embodiment of the present disclosure. In FIG. 9C, the results of the colony forming assay are quantified by microscopic examination by stereomicroscope.

In series [2] the test system is FaDu cells. The series is described as follows: in vitro cell viability of FaDu cells. The format is cell-based, human. As to conditions: for cytotoxicity: viability and colony forming.

dibromocurcumin [DBC]: in the series with FaDu cells [1] (DBC combined with 1 Gy of 14 keV NR), the “colony forming assay versus DBC or NR alone” value is given as “same result”. The colony forming inhibition entry in the series on FaDu cells [1] (FaDu cells, 40 μM DBC) is given as “about 50%”. In addition, the “cytotoxicity to FaDu cells” value in the series on FaDu cells [2] (20 μM of DBC combined with 1 Gy of NR) is on record as “significantly higher than using DBC or NR alone”. For the same substance, in the series with FaDu cells [2] (DBC and NR, FaDu cells), the “cytotoxicity of the combination with NR” value is listed as “synergistic cytotoxicity”. Further, the cytotoxicity entry with FaDu cells [2] (DBC dosage less than 20 μM) is listed as “little cytotoxicity”; with FaDu cells [2] (DBC dosage more than 120 μM), “efficiently kills FaDu cells”. In addition, in the series on FaDu cells [2] (FaDu cells, 80 μM DBC for 24 hours, Day 7), the cell viability result was “less than 50%”.
